Patent US20070160491A1, “Method For Determining Lumen Penetration Of A Vapor Phase Sterilant” (priority 2002, published 2007)
Several values for one entry are separate records, joined by “and”; a condition that tells them apart may be missing. Equal values may be shown once. Read-outs that look alike come from different tables or passages of the source.

How the values were obtained:
[1] = test system: biological indicators (test microorganisms)
Description: However, other process variables are also important, such as chamber and load temperature, size and composition of the load and exposure time. For a fixed load configuration in a particular sterilizer with a qualified sterilization cycle, temperature remains relatively constant during injection, so concentration and exposure time become the most important control variables. Area under a concentration-time curve is a useful index for quantifying cycle performance to compare with efficacy as measured via biological indicators.
(§1) An estimate of the area under the concentration-time curve is obtained by summing the one-second concentration values in the injection and diffusion steps of the cycle, as shown in Table 1 for sterilization cycles in a STERRAD® 200 […] sterilizer available from Advanced Sterilization Products division of Ethicon, Inc., Irvine, Calif., with different lumens in the validation load. The area scale for stainless steel (SS) is established by setting the value of the rate constant k equal to 0.46 sec^−1 to give an area of approximately 100 mg−sec/l for the cycles with 3 mm×500 mm stainless steel lumens at 30° C.

[2] = cited from earlier work
[3] = for rate constant of condensation k^C / rate constant of decomposition k^D: 3 mm stainless steel lumen
Description: k=rate constant for losses in the lumen, sec^−1
The rate of mass input per volume to the lumen 20 by internal processes is a negative term, whenever mass is lost in the lumen 20 by decomposition, absorption, adsorption and condensation. In that case the rate constant k is a negative number.
The rate constant k cannot be measured experimentally inside the lumen 20 without disturbing the internal environment, so a value is assigned for each lumen material, such as stainless steel and polyethylene. The value is adjusted to provide an area scale, which correlates efficacy results from the sterilization cycles, as discussed below.
as §1
(§2) Correcting the rate constant from 0.46 sec^−1 at 30° C. to 1.41 sec^−1 at 5° C. is initiated by writing the rate constant as the sum of the decomposition rate constant k^D and the condensation rate constant k^C. […] For a rate constant 0.46 sec^−1 at 30° C., each individual rate constant of decomposition k^D and condensation k^C is approximately 0.46/2=0.23 sec^−1. […] The rate constant of decomposition k^D at 5° C. is calculated from the rate constant of decomposition k^D at 30° C. and the rate factors for decomposition at 30° C. and 5° C.: k^D at 5° C.=0.23 sec^−1×(1 rate factor at 5° C./7 rate factor at 30° C.)=0.03 sec^−1. […] Finally, the rate constant at 5° C. is calculated as the sum of the rate constants of condensation k^C and of decomposition k^D at 5° C.: k at 5° C.=1.38 sec^−1+0.03 sec^−1=1.41 sec^−1.
The adjustment for diameter is made in Table 1 by correcting the rate constant 0.46 sec^−1 for 3 mm stainless steel lumens to 4.14 sec^−1 for 1 mm lumens with factors for the surface to volume ratio and diffusion radius ratio.
Surface to volume ratio correction factor=(surface/volume)1 mm/(surface/volume)3 mm=(2πrL)1 mm/(2πrL/πr^2L)3 mm=(1/r)1 mm/(1/r)3 mm=[…]=1.5 mm/0.5 mm=3
In addition to correction for surface to volume ratio, correction of the rate constant 0.46 sec^−1 for diffusion radius is necessary, because diffusion to the wall of the smaller lumen is greater than for the larger one. Diffusion radius ratio correction factor=(r)3 mm/(r)1 mm=1.5 mm/0.5 mm=3
The area scale for the second lumen material, polyethylene (PE), in Table 1 is established similarly for a limiting case in the STERRAD® 200 Sterilizer. The rate constant is set at 0.33 sec^−1 for 1 mm×500 mm lumens to give an area of approximately 100 mg−sec/l. […] The rate constant 0.33 sec^−1 for lumens with 1 mm diameter is corrected with factors for the surface to volume ratio and diffusion radius ratio to obtain the rate constant 0.037 sec-^−1 for 3 mm lumens.

[4] = 30 °C
Description: as §2

[5] = cited from earlier work; remark: listed apart in the source
[6] = lumen 0.8 × 100 mm SS, 30 °C, injection time 6.5 min
[7] = lumen 0.8 × 150 mm SS, 30 °C, injection time 6.5 min
[8] = lumen 1 × 125 mm SS, 30 °C, injection time 6.5 min
[9] = lumen 1 × 500 mm PE, 30 °C, injection time 6.5 min
[10] = lumen 1 × 700 mm PE, 30 °C, injection time 6.5 min
[11] = lumen 3 × 400 mm SS, 5 °C, injection time 6.5 min
[12] = lumen 3 × 400 mm SS, 30 °C, injection time 1 min
[13] = lumen 3 × 400 mm SS, 30 °C, injection time 2 min
[14] = lumen 3 × 400 mm SS, 30 °C, injection time 6.5 min
[15] = lumen 3 × 500 mm SS, 30 °C, injection time 6.5 min
[16] = lumen 3 × 1000 mm PE, 30 °C, injection time 6.5 min
[17] = lumen 3 × 1500 mm PE, 30 °C, injection time 6.5 min

Rate Factor for Decomposition [4]: 7
SMILES: OO [hydrogen peroxide]
Fraction Positive Biological Indicators [1, 6]: 0/48
Indicator Results Zone [1, 6]: Negative
Fraction Positive Biological Indicators [1, 7]: 2/24
Indicator Results Zone [1, 7]: Positive
Fraction Positive Biological Indicators [1, 8]: 0/36
Indicator Results Zone [1, 8]: Negative
Fraction Positive Biological Indicators [1, 9]: 0/36
Indicator Results Zone [1, 9]: Mixed
Fraction Positive Biological Indicators [1, 10]: 1/12
Indicator Results Zone [1, 10]: Positive
Fraction Positive Biological Indicators [1, 11]: 1/72
Indicator Results Zone [1, 11]: Positive
Fraction Positive Biological Indicators [1, 12]: 4/72
Indicator Results Zone [1, 12]: Mixed
Fraction Positive Biological Indicators [1, 13]: 0/72
Indicator Results Zone [1, 13]: Mixed
Fraction Positive Biological Indicators [1, 14]: 0/72
Indicator Results Zone [1, 14]: Negative
Fraction Positive Biological Indicators [1, 15]: 0/96
Indicator Results Zone [1, 15]: Mixed
Fraction Positive Biological Indicators [1, 16]: 0/36
Indicator Results Zone [1, 16]: Negative
Indicator Results Zone ([1]; lumen 3 × 1500 mm PE, 30 °C, injection time 20, 25, 30 min): Negative
Fraction Positive Biological Indicators [1, 17]: 1/36
Indicator Results Zone [1, 17]: Mixed
Fraction Positive Biological Indicators ([1]; lumen 3 × 1500 mm PE, 30 °C, injection time 20 min): 0/12
Fraction Positive Biological Indicators ([1]; lumen 3 × 1500 mm PE, 30 °C, injection time 25 min): 0/12
Fraction Positive Biological Indicators ([1]; lumen 3 × 1500 mm PE, 30 °C, injection time 30 min): 0/12
Fraction Positive BIs ([1]; lumen 3 × 1500 mm PE, 30 °C, injection times 20, 25, 30 min pooled): 0/36
Rate Factor for Decomposition ([2]; 5 °C (base case)): 1
Rate Factor for Decomposition ([2]; 5 °C (base case), listed as Hydrogen Peroxide): 1 Base Case
Rate Factor for Decomposition ([2]; 15 °C): 2.2
Rate Factor for Decomposition ([2]; 25 °C): 4.84
Rate Factor for Decomposition ([2]; 35 °C): 10.65
Rate Factor for Decomposition ([2]; 45 °C): 23.4
factor by which the decomposition rate increases ([2]; per each 10 °C rise in temperature): 2.2
−k, rate constant for losses in the lumen ([3]; 0.8 mm stainless steel lumens, 30 °C, k3 mm × 3.75 × 3.75): 6.47 s⁻¹
−k, rate constant for losses in the lumen ([3]; 0.8 mm stainless steel lumens, 30 °C, k3 mm × 3.75 × 3.75, listed as H2O2): 6.47 s⁻¹
−k, rate constant for losses in the lumen ([3]; 1 mm polyethylene lumens, 30 °C, k chosen to give 100 mg-sec/l area threshold): 0.33 s⁻¹
−k, rate constant for losses in the lumen ([3]; 1 mm polyethylene lumens, 30 °C, k chosen to give 100 mg-sec/l area threshold, listed as H2O2): 0.33 s⁻¹
−k, rate constant for losses in the lumen ([3]; 1 mm stainless steel lumens, 30 °C, k3 mm × 3 × 3): 4.14 s⁻¹
−k, rate constant for losses in the lumen ([3]; 1 mm stainless steel lumens, 30 °C, k3 mm × 3 × 3, listed as H2O2): 4.14 s⁻¹
−k, rate constant for losses in the lumen ([3]; 1 mm stainless steel lumens, 30 °C, k3 mm × 3 × 3, listed as Hydrogen Peroxide): 4.14 ^d sec^−1
−k, rate constant for losses in the lumen ([3]; 3 mm polyethylene lumens, 30 °C, k1 mm/(3 × 3)): 0.037 s⁻¹
−k, rate constant for losses in the lumen ([3]; 3 mm polyethylene lumens, 30 °C, k1 mm/(3 × 3), listed as H2O2): 0.037 s⁻¹
−k, rate constant for losses in the lumen ([3]; 3 mm polyethylene lumens, 30 °C, k1 mm/(3 × 3), listed as Hydrogen Peroxide): 0.037 ^f sec^−1 and 0.037 sec^−1
rate constant of condensation k^C ([3]; 5 °C): 1.38 s⁻¹
rate constant of decomposition k^D ([3]; 5 °C): 0.03 s⁻¹
rate constant of condensation k^C ([3]; 30 °C): ~0.23 s⁻¹
rate constant of decomposition k^D ([3]; 30 °C): ~0.23 s⁻¹
−k, rate constant for losses in the lumen ([3]; 3 mm stainless steel lumens, 5 °C, calculated from k at 30 °C, vapor pressure data and decomposition rate factor): 1.41 s⁻¹
−k, rate constant for losses in the lumen ([3]; 3 mm stainless steel lumens, 5 °C, calculated from k at 30 °C, vapor pressure data and decomposition rate factor, listed as H2O2): 1.41 s⁻¹
−k, rate constant for losses in the lumen ([3]; 3 mm stainless steel lumens, 5 °C, calculated from k at 30 °C, vapor pressure data and decomposition rate factor, listed as Hydrogen Peroxide): 1.41 ^c sec^−1
−k, rate constant for losses in the lumen ([3]; 3 mm stainless steel lumens, 30 °C, k chosen to give 100 mg-sec/l area threshold): 0.46 s⁻¹
−k, rate constant for losses in the lumen ([3]; 3 mm stainless steel lumens, 30 °C, k chosen to give 100 mg-sec/l area threshold, listed as H2O2): 0.46 s⁻¹
vapor pressure of hydrogen peroxide ([5]; at 5 °C): 0.46 mm Hg
vapor pressure of hydrogen peroxide ([5]; at 30 °C): 2.77 mm Hg
